# Data as given in ChEMBL document CHEMBL1201862, “PubChem BioAssay data set” (2004).
# Active and inactive are the calls of the source. Cut-off read from the data, not from the text of the source, for most assays here: actives have a measured EC50 and inactives only a lower limit.
# Key:
# [1] = molecular target: Neuropeptides B/W receptor type 1 (Homo sapiens, UniProt P48145); test: human NPBW1 receptor blockade, IC50 – cell-based, fluorescence, dose response, set 6, late-stage follow-up (AID 588583); type: functional
# [2] = molecular target: Melanin-concentrating hormone receptor 1 (Homo sapiens, UniProt Q99705); test: Late-stage fluorescence-based counterscreen for antagonists of the G-protein coupled receptor 7 (GPR7): cell-based dose response assay to identify antagonists of the melanin-concentrating hormone receptor 1 (MCHR1) Set 6.; type: functional
# CAAX prenyl protease 2 [3] = molecular target: CAAX prenyl protease 2 (Saccharomyces cerevisiae S288c, UniProt Q03530); type: biochemical
# CAAX prenyl protease 1 = CAAX prenyl protease 1 (Saccharomyces cerevisiae S288c, UniProt P47154); test: yeast CAAX protease Ste24 inhibition – biochemical, S. cerevisiae, plate reader, cherry-pick, dose response (AID 488815)
# CAAX prenyl protease 2 [4] = molecular target: CAAX prenyl protease 2 (Homo sapiens, UniProt Q9Y256); test: inhibition of Ras-converting CAAX protease Rce1 – biochemical, yeast membranes, quenched-peptide fluorescence, cherry-pick, dose response (AID 588849)
# Vero = test: cells; type: functional; settings: Chlorocebus sabaeus
# [5] = NIH-3T3 fibroblast cytotoxicity, dose response, cytotoxicity control, cell-based, fluorescence, Alamar Blue, secondary assay (AID 2327); type: functional;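 note: NIH-3T3 mouse fibroblasts cultured with fluconazole at 8 µg/mL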
# [6] = fluconazole-exposed Candida albicans growth modulators – fluorescence, retest, confirmation (AID 2467); type: functional, cell-based
# [7] = Trypanosoma cruzi growth suppression in host cells – NIH3T3 host cells, beta-gal luminescence, confirmation (AID 2044); type: functional, cell-based;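 note: intracellular parasites grown in NIH/3T3 mouse fibroblasts as host cells; luminescent beta-galactosidase reporter signal from transgenic T. cruzi replicating inside host cells; inhibitors lower the luminescence signal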
# [8] = NIH3T3 cell viability loss – ATP luminescence, mouse fibroblasts, counter-screen, dose response (AID 2010); type: functional, cell-based;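 note: cells exposed to compound for about 90 hours before reading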
# INS1 = test: INS-1E survival protection against cytokine death – cell-based, luminescence, retest, dose response (AID 449756); type: functional; settings: Rattus norvegicus;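 note: cell death triggered by IL-1 beta plus TNF-alpha plus IFN-gamma mixture; protective hits raise ATP signal compared with cytokine alone wells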
# [9] = molecular target: Heat shock protein HSP 90-alpha (Homo sapiens, UniProt P07900); type: functional, organism-based
# cells [10] = type: functional, cell-based
# cells [11] = type: functional, cell-based; remark: listed apart in the source
# [12] = HEK-293T viability loss after treatment – luminescence, T-cell screen hits, cytotoxicity control for TCR NF-kB inhibitor project, dose response (AID 489026); type: functional, cell-based;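 note: cells exposed to compound about 14 hours before the viability readout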
# [13] = molecular target: Serine/threonine-protein phosphatase (Candida dubliniensis (strain CD36 / CBS 7987 / NCPF 3949 / NRRLY-17841) (Yeast), UniProt B9W6M3); test: blockers of CaCl2-induced CDRE-lacZ signaling – S. cerevisiae, luminescence, secondary, dose response (AID 2388); type: functional, cell-based;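 note: yeast reporter cells carrying a calcineurin-responsive lacZ construct stimulated with calcium chloride; luminescent beta-galactosidase reporter signal in whole cells rather than isolated phosphatase activity; potency for inhibition where a drop in reporter signal means calcineurin blockade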
# [14] = Luminescence Cell-Based Dose Retest to Confirm Inhibitors of Cancer Stem Cells. [Related pubchem assays (depositor defined):AID2717, AID2721]; type: functional; settings: Homo sapiens
# [15] = molecular target: ATP-dependent molecular chaperone HSP82 (Candida albicans (strain WO-1) (Yeast), UniProt C4YTQ8); test: steroid-induced GRE reporter decrease in yeast – S. cerevisiae, luminescence, Hsp90 inhibitor project, dose response (AID 2400); type: functional, cell-based;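 note: beta-galactosidase luminescence from glucocorticoid response element reporter as proxy for Hsp90 function; inhibitor potency where signal loss means Hsp90 inhibition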
# [16] = DRD fibroblast viability loss – cell-based, non-viral oncogenic, luminescence, dose response (AID 1934); type: functional; settings: Homo sapiens
# [17] = Luminescence Cell-Based Dose Response HTS to Identify Inhibitors of 5'UTR Stem-Loop Driven Prion Protein mRNA Translation in H4 Neuroglioblastoma Cells. [Related pubchem assays: 1827 (Project Summary), 1813 (Primary HTS)]; type: functional
# [18] = luciferase reporter signal suppression in cells – H4 neuroglioma cells, luminescence, dose response (AID 1990); type: functional, cell-based
# NS3 = NS3 (Hepatitis C virus, UniProt A3EZJ3); test: PubChem AID 2173; parameters: species or system Hepacivirus hominis
# BJ [19] = test: BJ-TERT fibroblast viability loss – cell-based, RAS-independent, luminescence, dose response (AID 1933); type: functional; settings: Homo sapiens
# [20] = molecular target: Hepatocyte nuclear factor 4-alpha (Homo sapiens, UniProt P41235); type: functional, cell-based;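 note: biochemical luminescence-based dose-response counterscreen measuring inhibition of HNF4 dimerization, run alongside a screen for blockers of ABHD5–perilipin-5 interaction; split luciferase complementation of HNF4 fusion proteins in cell lysate measuring dimerization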
# BJ [21] = test: BJ-TERT-LT-ST fibroblast viability loss – cell-based, RAS-independent, luminescence, dose response (AID 1935); type: functional; settings: Homo sapiens;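 note: BJ fibroblasts immortalized with TERT plus LT and ST oncogenes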
# [22] = alpha-synuclein stem-loop luciferase translation blockers – H4 neuroglioma cells, luminescence, confirmation (AID 1988); type: functional, cell-based
# Streptococcus = test: GAS UMAA2166 growth inhibition – luminescence, BacTiterGlo, counter-screen for streptokinase expression inhibitor project, dose response (AID 1915); type: functional, organism-based;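 note: potency for reduction of bacterial viability or growth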
# BJ [23] = test: cells; type: functional, cell-based; settings: Homo sapiens
# [24] = tested on: Streptococcus sp. 'group A'; test: Streptococcus pyogenes SK(-)GAS viability under kanamycin – luminescence, BacTiterGlo, confirmation, counter-screen for streptokinase expression inhibitor project, dose response (AID 1900); type: functional, organism-based
# Hepatocyte nuclear factor 4-alpha, sequence (P41235 whole entry, the tested form may be a part): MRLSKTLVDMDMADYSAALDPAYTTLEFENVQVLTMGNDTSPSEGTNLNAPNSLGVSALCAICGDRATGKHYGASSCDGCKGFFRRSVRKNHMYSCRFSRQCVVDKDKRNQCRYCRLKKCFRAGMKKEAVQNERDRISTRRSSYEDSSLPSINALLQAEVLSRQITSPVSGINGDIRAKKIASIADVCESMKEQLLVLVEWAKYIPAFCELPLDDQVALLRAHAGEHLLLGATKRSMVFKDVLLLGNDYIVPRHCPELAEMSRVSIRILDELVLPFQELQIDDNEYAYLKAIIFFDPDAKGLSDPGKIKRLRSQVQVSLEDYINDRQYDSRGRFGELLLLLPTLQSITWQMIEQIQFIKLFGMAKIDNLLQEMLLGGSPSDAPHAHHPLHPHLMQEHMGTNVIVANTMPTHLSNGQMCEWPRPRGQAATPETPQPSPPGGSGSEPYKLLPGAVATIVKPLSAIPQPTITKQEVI
# ATP-dependent molecular chaperone HSP82, sequence (C4YTQ8 whole entry): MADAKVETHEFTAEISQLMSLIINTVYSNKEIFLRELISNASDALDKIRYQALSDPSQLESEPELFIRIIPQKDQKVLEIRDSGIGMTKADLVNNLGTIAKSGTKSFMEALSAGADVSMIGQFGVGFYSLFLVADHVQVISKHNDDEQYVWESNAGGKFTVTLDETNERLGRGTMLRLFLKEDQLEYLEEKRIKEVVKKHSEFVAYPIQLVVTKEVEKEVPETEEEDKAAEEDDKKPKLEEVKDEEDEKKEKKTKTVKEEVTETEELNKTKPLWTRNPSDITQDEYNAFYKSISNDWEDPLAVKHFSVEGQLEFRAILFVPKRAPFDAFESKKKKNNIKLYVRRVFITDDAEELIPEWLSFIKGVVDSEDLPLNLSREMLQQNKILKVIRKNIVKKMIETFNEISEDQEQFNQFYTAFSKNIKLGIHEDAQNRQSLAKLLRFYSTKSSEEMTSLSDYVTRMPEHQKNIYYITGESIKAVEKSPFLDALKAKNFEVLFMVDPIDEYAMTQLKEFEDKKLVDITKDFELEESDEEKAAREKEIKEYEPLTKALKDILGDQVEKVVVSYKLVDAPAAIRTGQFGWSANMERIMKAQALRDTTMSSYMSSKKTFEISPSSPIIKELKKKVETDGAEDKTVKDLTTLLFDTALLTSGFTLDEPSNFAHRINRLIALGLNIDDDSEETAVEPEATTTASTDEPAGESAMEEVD
# CAAX prenyl protease 1, sequence (P47154 whole entry): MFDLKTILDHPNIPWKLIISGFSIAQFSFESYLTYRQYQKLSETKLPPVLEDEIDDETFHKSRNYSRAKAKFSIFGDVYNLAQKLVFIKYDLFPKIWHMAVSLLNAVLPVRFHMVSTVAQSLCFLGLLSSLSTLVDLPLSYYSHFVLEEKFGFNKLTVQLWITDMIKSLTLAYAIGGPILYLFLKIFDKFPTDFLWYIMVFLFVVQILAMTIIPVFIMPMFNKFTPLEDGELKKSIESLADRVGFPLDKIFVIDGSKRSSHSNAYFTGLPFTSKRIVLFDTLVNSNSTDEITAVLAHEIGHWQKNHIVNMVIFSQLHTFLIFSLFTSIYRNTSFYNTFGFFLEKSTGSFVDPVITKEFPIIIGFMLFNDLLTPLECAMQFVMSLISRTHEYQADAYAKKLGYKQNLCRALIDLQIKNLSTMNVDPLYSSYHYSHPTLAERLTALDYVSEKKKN
# CAAX prenyl protease 2 (Saccharomyces cerevisiae S288c, UniProt Q03530), sequence (Q03530 whole entry): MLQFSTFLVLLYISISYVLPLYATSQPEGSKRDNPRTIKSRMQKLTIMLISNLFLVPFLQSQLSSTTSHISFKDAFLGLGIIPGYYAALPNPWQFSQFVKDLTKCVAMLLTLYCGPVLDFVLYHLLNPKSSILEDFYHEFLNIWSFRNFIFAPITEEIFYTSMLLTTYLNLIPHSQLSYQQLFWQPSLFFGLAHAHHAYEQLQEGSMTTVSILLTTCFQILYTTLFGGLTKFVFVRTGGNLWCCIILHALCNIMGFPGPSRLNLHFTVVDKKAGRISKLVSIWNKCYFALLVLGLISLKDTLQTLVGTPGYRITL
# Neuropeptides B/W receptor type 1, sequence (P48145 whole entry): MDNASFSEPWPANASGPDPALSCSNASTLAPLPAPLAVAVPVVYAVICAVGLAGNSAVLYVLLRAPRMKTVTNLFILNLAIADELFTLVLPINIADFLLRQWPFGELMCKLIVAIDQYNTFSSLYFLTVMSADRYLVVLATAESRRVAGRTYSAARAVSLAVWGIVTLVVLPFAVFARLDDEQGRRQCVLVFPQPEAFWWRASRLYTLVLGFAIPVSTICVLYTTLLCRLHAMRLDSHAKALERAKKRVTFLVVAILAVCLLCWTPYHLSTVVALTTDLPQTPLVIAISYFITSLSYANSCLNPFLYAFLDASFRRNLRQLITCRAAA
# Melanin-concentrating hormone receptor 1, sequence (Q99705 whole entry): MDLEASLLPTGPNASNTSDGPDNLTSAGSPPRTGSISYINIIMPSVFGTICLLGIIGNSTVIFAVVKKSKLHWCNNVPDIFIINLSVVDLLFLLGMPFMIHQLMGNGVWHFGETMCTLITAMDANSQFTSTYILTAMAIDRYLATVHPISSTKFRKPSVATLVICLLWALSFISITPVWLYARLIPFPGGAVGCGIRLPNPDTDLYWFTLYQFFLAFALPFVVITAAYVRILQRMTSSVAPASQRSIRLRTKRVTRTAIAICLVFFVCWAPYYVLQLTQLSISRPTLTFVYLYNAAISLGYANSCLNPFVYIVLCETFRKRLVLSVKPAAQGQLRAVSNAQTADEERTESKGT
# NS3, sequence (A3EZJ3 whole entry): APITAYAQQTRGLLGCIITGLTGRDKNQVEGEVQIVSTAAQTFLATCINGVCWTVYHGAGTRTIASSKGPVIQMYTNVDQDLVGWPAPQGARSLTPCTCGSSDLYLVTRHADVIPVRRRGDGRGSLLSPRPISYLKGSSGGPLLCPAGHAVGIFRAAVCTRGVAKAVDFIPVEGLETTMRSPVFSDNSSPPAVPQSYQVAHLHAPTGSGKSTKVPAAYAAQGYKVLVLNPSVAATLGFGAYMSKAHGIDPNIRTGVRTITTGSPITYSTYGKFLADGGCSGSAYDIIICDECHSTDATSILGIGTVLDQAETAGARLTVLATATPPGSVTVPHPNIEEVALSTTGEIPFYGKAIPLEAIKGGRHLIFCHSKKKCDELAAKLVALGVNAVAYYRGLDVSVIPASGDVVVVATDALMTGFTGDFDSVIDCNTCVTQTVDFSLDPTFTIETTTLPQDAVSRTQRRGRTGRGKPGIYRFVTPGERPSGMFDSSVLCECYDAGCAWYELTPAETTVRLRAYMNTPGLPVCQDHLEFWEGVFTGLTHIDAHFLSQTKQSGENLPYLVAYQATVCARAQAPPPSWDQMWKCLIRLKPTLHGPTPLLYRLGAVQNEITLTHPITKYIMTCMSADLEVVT
# Serine/threonine-protein phosphatase, sequence (B9W6M3 whole entry): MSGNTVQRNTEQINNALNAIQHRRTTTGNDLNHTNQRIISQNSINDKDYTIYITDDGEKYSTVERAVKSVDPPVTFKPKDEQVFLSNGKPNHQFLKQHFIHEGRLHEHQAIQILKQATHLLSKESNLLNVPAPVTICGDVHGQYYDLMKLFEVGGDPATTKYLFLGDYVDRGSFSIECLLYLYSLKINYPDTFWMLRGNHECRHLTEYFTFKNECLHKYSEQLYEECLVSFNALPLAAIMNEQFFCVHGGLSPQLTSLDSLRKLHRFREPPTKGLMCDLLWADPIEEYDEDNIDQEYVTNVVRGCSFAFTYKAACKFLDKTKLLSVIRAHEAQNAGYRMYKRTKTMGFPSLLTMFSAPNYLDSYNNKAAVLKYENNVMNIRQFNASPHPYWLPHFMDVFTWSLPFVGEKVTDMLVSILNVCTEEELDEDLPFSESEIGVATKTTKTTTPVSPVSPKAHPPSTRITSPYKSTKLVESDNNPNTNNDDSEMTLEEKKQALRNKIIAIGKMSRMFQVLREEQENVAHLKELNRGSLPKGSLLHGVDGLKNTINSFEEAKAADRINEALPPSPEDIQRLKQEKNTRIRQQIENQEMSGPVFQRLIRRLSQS
# CAAX prenyl protease 2 (Homo sapiens, UniProt Q9Y256), sequence (Q9Y256 whole entry): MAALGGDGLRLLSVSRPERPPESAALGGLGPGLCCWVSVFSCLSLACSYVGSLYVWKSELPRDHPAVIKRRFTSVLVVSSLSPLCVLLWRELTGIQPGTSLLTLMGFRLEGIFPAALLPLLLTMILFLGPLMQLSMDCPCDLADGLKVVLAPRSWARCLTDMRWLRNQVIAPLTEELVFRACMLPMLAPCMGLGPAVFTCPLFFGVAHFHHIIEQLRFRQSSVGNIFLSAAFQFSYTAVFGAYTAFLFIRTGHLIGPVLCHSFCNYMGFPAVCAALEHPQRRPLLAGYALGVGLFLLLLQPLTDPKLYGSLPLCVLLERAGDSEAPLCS
smiles,measurement,setting,value
CC(C#N)(c1ccccc1)c1c(Br)cnn(Cc2cccc3ccccc23)c1=O (stereo unspecified),IC50,[1],0.326 µM (active)
same,IC50,[2],0.326 µM (active)
CNC(=S)N/N=C/c1cn(Cc2c(F)cccc2Cl)c2ccccc12,AC50,CAAX prenyl protease 2 [3],0.818 µM (active)
same,AC50,CAAX prenyl protease 1,7.58 µM (active)
same,AC50,CAAX prenyl protease 2 [4],16 µM (active)
CCOc1ccc(Oc2c(/C=N/NC(=O)COc3ccccc3OC)c(C)nn2-c2ccccc2)cc1,CC50,Vero,> 25 µM (active)
CCC(=O)NC(c1cccs1)c1ccc2cccnc2c1O (stereo unspecified),EC50,[5],3.59 µM (active)
same,EC50,[6],1.39 µM (active)
same,EC50,[7],0.48 µM (active)
same,EC50,[8],1.48 µM (active)
same,AC50,INS1,0.86 µM (active)
same,AC50,[9],7.9 µM (active)
same,EC50,cells [10],8.02 µM (active)
same,EC50,cells [11],> 350 µM (not active)
same,IC50,[12],> 80 µM (inactive)
Cc1cccc(C(=O)NNC2=C(C(=O)C(F)(F)F)CCC2)c1O,EC50,[5],> 160 µM (inactive)
same,EC50,[6],0.53 µM (active)
same,EC50,[13],> 180 µM (inactive)
same,AC50,[14],3.16 µM (active)
same,EC50,[15],35.6 µM (active)
Cc1ccc(C)c(/C=C/C(=O)c2ccccc(=O)c2O)c1,EC50,[16],56.8 µM (inconclusive)
same,EC50,[17],> 120 µM (not active)
same,EC50,[18],13.9 µM (active)
same,IC50,NS3,2.52 µM (active)
same,EC50,BJ [19],17.2 µM (inconclusive)
same,EC50,[5],> 150 µM (inactive)
same,EC50,[6],1.47 µM (active)
same,EC50,[7],2.29 µM (active)
same,IC50,[20],6.56 µM (active)
same,EC50,[8],8.18 µM (active)
same,AC50,[9],2.42 µM (active)
same,EC50,BJ [21],> 150 µM (not active)
same,EC50,[22],12.7 µM (active)
same,EC50,Streptococcus,5 µM (active)
same,EC50,BJ [23],14.4 µM (active)
same,EC50,[24],1.41 µM (active)
